The target of test [1] is Avi-humanTEAD4^217-434 / Cy5 labeled humanYAP^60-100 (Homo sapiens (Human), UniProt Q15561). Put plainly: In-vitro biochemical TR-FRET assay (TEAD4/YAP). It counts as binding. Conditions: 1 h at room temperature.
The test system of test [2] is YAP-dependent transcription in NCI-H2052 Tet-On shYAP_2371 pLenti6 MCAT_Luc cells. Put plainly: YAP reporter gene activity assay (MCAT-Luc), NCI-H2052. The test is classed as cell-based. Conditions: Homo sapiens, 24 hrs. (In a reporter assay the amount or activity of a reporter protein is the signal.)
For test [3], the system named is YAP-dependent transcription in SF268-MCAT_Luc_dox-i-shYAPLevy (Clone 13) cells. In words: YAP reporter gene activity assay (MCAT-Luc), SF268. It counts as cell-based. Conditions: Homo sapiens, SF-268; SF268 MCAT_Luc, 24 hrs.
The test system of test [4] is MKN-45/Ubc-luc cells (unspecific inhibition of luciferase expression or activity). In words: Reporter gene assay specificity control (Ubc-Luc), MKN-45. It counts as cell-based. Conditions: Homo sapiens; MKN-45/Ubc-luc specificity control, 24 hrs. In short, it runs like this:
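MKN-45 cells stably carrying a ubiquitin C promoter–firefly luciferase construct, treated the day after seeding with eleven 2-fold compound dilutions (0.1% DMSO final) for 24 hrs at 37° C. Luminescence read 5 min after Steady Glo addition; cell-free background subtracted, as a control for nonspecific luciferase inhibition.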

Test [5] concerns NCI-H2052 Tet-On shYAP_2371 pLenti6 MCAT_Luc cells. Put plainly: Proliferation assay (resazurin/AlamarBlue), NCI-H2052. The test is classed as cell-based. Conditions: Homo sapiens; NCI-H2052, 72 hours. (In general: Resazurin is reduced to fluorescent resorufin, in cell work by metabolically active cells.)
Test [6] concerns SF268-MCAT_Luc_dox-i-shYAPLevy (Clone 13) cells. Put plainly: Proliferation assay (resazurin/AlamarBlue), SF268. It counts as cell-based. Conditions: Homo sapiens, SF-268; SF268, 72 hours.
A further test deals with MKN-45/Ubc-luc cells. In words: Proliferation assay (resazurin/AlamarBlue), MKN-45. It counts as cell-based. Conditions: Homo sapiens; MKN-45, 72 hours. In short, it runs like this:
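MKN-45 cells carrying constitutive Ubc-driven luciferase reporter, treated the day after seeding with eleven 2-fold dilutions (0.1% DMSO) for 72 h at 37 °C. Viability by resazurin, referenced to day-0 plate; GI50 from % growth (100 none, 0 stasis, −100 kill) and residual viability at top concentration.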

Test [7] has as its target TEAD1-GFP in HEK293A cells (Homo sapiens (Human), UniProt P28347). In words: TEAD1 protein abundance flow cytometry assay in HEK293A. The test is classed as cell-based. Conditions: HEK293A TEAD1-GFP-CHYSEL-mCherry sensor cells, 24 h, GFP signal by flow cytometry. The procedure:
Degradation of TEAD1 was measured in HEK293A cells (Invitrogen R70507) expressing TEAD1-GFP and mCherry from a stably integrated bicistronic TEAD1-GFP-CHYSEL-mCherry construct. Reduction of the GFP signal measured by flow cytometry served as readout for TEAD1 degradation after degrader treatment.
Stable HEK293A sensor cells were maintained in complete growth medium (DMEM high Glucose+10% FCS+1% L-Glutamine+1% NEAA+1% NaPyr.+4 μg/mL blasticidin) with passaging performed twice per week. On Day 0, stable HEK293A sensor cells were seeded at 5,000 cells/well in a 96-well microtiter plate in 100 μL complete medium. On Day 1, cells were treated in duplicate with 10-point 1:3 dilution series of compound using the HP D300 Digital Dispenser (Tecan). DMSO concentrations were normalized across the plate to 0.1%. On Day 2, after 24 h of incubation at 37° C., treatment media was discarded, cells rinsed with 100 μL/well PBS and then detached using 40 μL trypsin/well for 5 min. Trypsin was neutralized with 100 μL/well PBS+20% FCS).
Flow cytometry was performed on the samples using the CytoFlex S (Beckman Coulter). Cell identification was then performed using forward (FSC) vs. side scatter (SSC) plots. Single cell discrimination was performed using SSC-Width (SSC-W) vs. SSC-Height (SSCH) plots. Median GFP values for 2,500 single cells were used to determine TEAD1 levels. Median GFP values from HEK293A were used as a background signal and thus defining 0% TEAD1 signal. Median GFP values from DMSO treated HEK293A TEAD1-GFP CHYSEL-mCherry were used to define 100%
TEAD1 signal for subsequent DC50 curves (concentration at 50% TAED1 degradation). GFP and RFP were read in the channels called FITC and PE, respectively. Concentration response curves plotting relative reduction of the GFP signal (measured by flow cytometry) versus 10 compound concentrations (starting concentration 10 μM, 3 fold dilution steps) of the compounds allowed generation of DC50 values.

Structures are written as SMILES.

A word on the IC50: it is the concentration needed to halve the response being measured. By GI50 is commonly meant the concentration at which growth is held to half of that of the control. A lower GI50 goes with greater sensitivity of the cells.

TEAD1-GFP in HEK293A cells, sequence (P28347 whole entry): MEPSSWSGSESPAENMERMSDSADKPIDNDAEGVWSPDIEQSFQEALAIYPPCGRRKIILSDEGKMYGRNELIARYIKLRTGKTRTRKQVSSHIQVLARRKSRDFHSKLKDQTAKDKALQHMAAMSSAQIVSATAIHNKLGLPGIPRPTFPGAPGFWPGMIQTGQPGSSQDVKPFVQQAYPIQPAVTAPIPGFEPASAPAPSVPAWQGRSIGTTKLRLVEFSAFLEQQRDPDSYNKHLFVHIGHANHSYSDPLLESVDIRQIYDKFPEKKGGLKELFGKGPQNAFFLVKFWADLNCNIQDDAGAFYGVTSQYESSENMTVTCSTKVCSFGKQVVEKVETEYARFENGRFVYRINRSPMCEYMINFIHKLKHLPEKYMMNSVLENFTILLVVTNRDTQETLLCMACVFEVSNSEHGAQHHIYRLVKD
Avi-humanTEAD4^217-434 / Cy5 labeled humanYAP^60-100, sequence (Q15561 217-434): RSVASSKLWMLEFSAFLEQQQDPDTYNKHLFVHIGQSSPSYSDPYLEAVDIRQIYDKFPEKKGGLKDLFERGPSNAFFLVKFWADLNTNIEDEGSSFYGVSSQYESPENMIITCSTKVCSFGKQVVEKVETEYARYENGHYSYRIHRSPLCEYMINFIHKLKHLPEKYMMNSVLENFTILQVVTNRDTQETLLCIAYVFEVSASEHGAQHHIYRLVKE

`COc1ccc(C(=O)N2CCC(CC3CCN(CCNC(=O)[C@H]4CC[C@H](NC[C@]5(c6ccccc6)Oc6cc(F)c(Cl)c(-c7c(C(N)=O)ccc(OC)c7F)c6[C@@H]5C)CC4)CC3)CC2)cc1N1CCC(=O)NC1=O` (atropisomer, axis not shown) [Example 7, 2-((2S,3S,4S)-5-chloro-2-((((1r,4S)-4-((2-(4-((1-(3-(2,4-dioxotetrahydropyrimidin-1(2H)-yl)-4-methoxybenzoyl)piperidin-4-yl)methyl)piperidin-1-yl)ethyl)carbamoyl)cyclohexyl)amino)methyl)-6-fluoro-3-methyl-2-phenyl-2,3-dihydrobenzofuran-4-yl)-3-fluoro-4-methoxybenzamide]: the IC50 in test [1] was less than 1 nM; in test [2], 29 nM; in test [3], 0.4 nM; in test [4], more than 20000 nM. Moreover, the values for the GI50 (in test [5]; in test [6]; with MKN-45/Ubc-luc cells) were 77 nM, 26 nM and more than 20000 nM, respectively. The DC50 in test [7] was determined as 3 nM.

As to `COc1ccc(C(N)=O)c(-c2c(Cl)c(F)cc3c2[C@H](C)[C@@](CN[C@H]2CC[C@H](C(=O)N4CCC(CC5CCN(C(=O)COc6ccc(N7CCC(=O)NC7=O)cc6)CC5)CC4)CC2)(c2ccccc2)O3)c1F` (atropisomer, axis not shown) [Example 25, 2-((2S,3S,4S)-5-chloro-2-((((1r,4S)-4-(4-((1-(2-(4-(2,4-dioxotetrahydropyrimidin-1(2H)-yl)phenoxy)acetyl)piperidin-4-yl)methyl)piperidine-1-carbonyl)cyclohexyl)amino)methyl)-6-fluoro-3-methyl-2-phenyl-2,3-dihydrobenzofuran-4-yl)-3-fluoro-4-methoxybenzamide], the IC50 was 2.4 nM in test [1], 3.2 nM in test [2], 0.54 nM in test [3] and more than 2000 nM in test [4]. The concentration for 50% growth inhibition (GI50) in test [5] was 8.5 nM; in test [6], 22 nM; in the test with MKN-45/Ubc-luc cells, more than 2000 nM. Moreover, the DC50 in test [7] is 0.5 nM.

For the molecule `COc1ccc(C(N)=O)c(-c2c(Cl)c(F)cc3c2[C@H](C)[C@@](CN[C@H]2CC[C@H](C(=O)N4CCC(CC5CCN(CCn6cccc(CN7CCC(=O)NC7=O)c6=O)CC5)CC4)CC2)(c2ccccc2)O3)c1F` (atropisomer, axis not shown) [Example 15, 2-((2S,3S,4S)-5-chloro-2-((((1r,4S)-4-(4-((1-(2-(3-((2,4-dioxotetrahydropyrimidin-1(2H)-yl)methyl)-2-oxopyridin-1(2H)-yl)ethyl)piperidin-4-yl)methyl)piperidine-1-carbonyl)cyclohexyl)amino)methyl)-6-fluoro-3-methyl-2-phenyl-2,3-dihydrobenzofuran-4-yl)-3-fluoro-4-methoxybenzamide], the IC50 is less than 1 nM in test [1], 17 nM in test [2], 2.6 nM in test [3] and more than 2000 nM in test [4]. Besides, the GI50 in test [5] was determined as 31 nM; in test [6], 85 nM; with MKN-45/Ubc-luc cells, 1550 nM. For the same molecule, the DC50 in test [7] is 3 nM.

`COc1ccc(C(N)=O)c(-c2c(Cl)c(F)cc3c2[C@H](C)[C@@](CN[C@H]2CC[C@H](C(=O)N4CCC(C5CCN(C(=O)COc6ccc(C)c(N7CCC(=O)NC7=O)c6)CC5)CC4)CC2)(c2ccccc2)O3)c1F` (atropisomer, axis not shown) [Example 19, 2-((2S,3S,4S)-5-chloro-2-((((1r,4S)-4-(1′-(2-(3-(2,4-dioxotetrahydropyrimidin-1(2H)-yl)-4-methylphenoxy)acetyl)-[4,4′-bipiperidine]-1-carbonyl)cyclohexyl)amino)methyl)-6-fluoro-3-methyl-2-phenyl-2,3-dihydrobenzofuran-4-yl)-3-fluoro-4-methoxybenzamide]: the IC50 in test [1] was 2.1 nM; in test [2], 4.6 nM; in test [3] it was 0.41 nM; in test [4] it was more than 2000 nM. Also, the 50% growth inhibitory concentration (GI50) is 12 nM in test [5], 29 nM in test [6] and more than 2000 nM in the test on MKN-45/Ubc-luc cells. The molecule also returned a DC50 in test [7] of 0.5 nM.

Values taken from patent US20240382600A1, “BIFUNCTIONAL DEGRADERS COMPRISING A TEAD BINDER” (Novartis AG, priority 2021, published 2024).
